The text below walks through data of US20250002507A1, “7,8-DIHYDRO-5H-1,6-NAPHTHYRIDINE DERIVATIVES AS POSITIVE ALLOSTERIC MODULATORS OF THE MUSCARINIC ACETYLCHOLINE RECEPTOR M4 FOR TREATING NEUROLOGICAL AND PSYCHIATRIC DISORDERS” (Vanderbilt University, priority 2021, published 2025).

For this test, the target named is T1, Human M4 (Homo sapiens, UniProt P08173).
T1 construct: expressed in transfected cells
T1 sequence (P08173 1-479): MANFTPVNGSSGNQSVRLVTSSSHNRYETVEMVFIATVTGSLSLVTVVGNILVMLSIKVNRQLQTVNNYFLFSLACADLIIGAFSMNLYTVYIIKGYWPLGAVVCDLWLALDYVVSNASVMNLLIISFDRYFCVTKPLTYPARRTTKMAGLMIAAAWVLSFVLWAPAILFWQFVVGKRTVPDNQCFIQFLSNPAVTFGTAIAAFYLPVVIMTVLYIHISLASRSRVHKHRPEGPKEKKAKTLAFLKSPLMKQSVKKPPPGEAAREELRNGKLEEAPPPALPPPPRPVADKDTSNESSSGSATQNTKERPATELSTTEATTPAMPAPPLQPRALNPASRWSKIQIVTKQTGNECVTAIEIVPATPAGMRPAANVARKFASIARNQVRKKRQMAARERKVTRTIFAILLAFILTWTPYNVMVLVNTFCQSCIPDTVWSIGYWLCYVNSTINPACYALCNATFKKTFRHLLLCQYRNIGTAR
In words: mAChR M4 cell-based functional assay (calcium flux, potentiation of EC20 acetylcholine response), hM4-Gqi5 CHO-K1 cells. Particulars: Table 4; for Emax at 30 µM: CHO-K1, Human M4, % ACh maximum at 30 μM, read-out: Emax (% ACh maximum at 30 μM); for EC50: potentiation of EC20 acetylcholine response, calcium flux, CHO-K1 cells, read-out: Human M4 EC50. The procedure, abridged: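 CHO-K1 cells stably expressing human M4 with chimeric Gqi5, loaded with Fluo-4 AM 50 min at 37 °C; calcium flux read by FDSS. 11-point 1:3 compound curves added, then EC20 acetylcholine at 144 s; potentiation of the EC20 response fitted by four-parameter logistic to give EC50 and Emax.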
For orientation: A change in cytosolic calcium serves as a functional read-out for many receptors and channels.

Structures are written as SMILES.

The Emax is the greatest response seen or fitted, relative to the assay's reference. The EC50 is the concentration at which the effect is half-maximal. For `Cc1c(N2CCc3ncc(N4C[C@@H](C)O[C@@H](C)C4)cc3C2)nn2c(C(F)(F)F)nnc2c1C` [Compound 318, (2R,6S)-4-(6-(7,8-dimethyl-3-(trifluoromethyl)-[1,2,4]triazolo[4,3-b]pyridazin-6-yl)-5,6,7,8-tetrahydro-1,6-naphthyridin-3-yl)-2,6-dimethylmorpholine], the Emax at 30 µM is 80% and the EC50 was determined as 2150 nM.

For `Cc1cc2nnc(C(F)(F)F)n2nc1N1CCc2ncc(C(F)(F)F)cc2C1` [Compound 319, 6-(7-methyl-3-(trifluoromethyl)-[1,2,4]triazolo[4,3-b]pyridazin-6-yl)-3-(trifluoromethyl)-5,6,7,8-tetrahydro-1,6-naphthyridine], the Emax at 30 µM was 96% and the EC50 was found to be 794 nM.

On to `Cc1cc2n(n1)CCCN2c1cnc2c(c1)CN(c1nn3c(C(F)(F)F)nnc3c(C)c1C)CC2` [Compound 320, 6-(7,8-dimethyl-3-(trifluoromethyl)-[1,2,4]triazolo[4,3-b]pyridazin-6-yl)-3-(2-methyl-6,7-dihydropyrazolo[1,5-a]pyrimidin-4(5H)-yl)-5,6,7,8-tetrahydro-1,6-naphthyridine], for which the Emax at 30 µM worked out at 76% and the EC50 was 121 nM.

As for `Cc1c(N2CCc3ncc(C(F)(F)F)cc3C2)nn2c(C(F)(F)F)nnc2c1C` [Compound 321, 6-(7,8-dimethyl-3-(trifluoromethyl)-[1,2,4]triazolo[4,3-b]pyridazin-6-yl)-3-(trifluoromethyl)-5,6,7,8-tetrahydro-1,6-naphthyridine], the Emax at 30 µM stood at 72% and the EC50 worked out at 270 nM.

For the molecule `Cc1c(N2CCc3ncc(N4CCO[C@H](c5ccccc5)C4)cc3C2)nn2c(C(F)(F)F)nnc2c1C` [Compound 322, (R)-4-(6-(7,8-dimethyl-3-(trifluoromethyl)-[1,2,4]triazolo[4,3-b]pyridazin-6-yl)-5,6,7,8-tetrahydro-1,6-naphthyridin-3-yl)-2-phenylmorpholine], the Emax at 30 µM is 96% and the EC50 came to 3140 nM.

Turning to `Cc1c(N2CCc3ncc(N4CCO[C@@H](c5ccccc5)C4)cc3C2)nn2c(C(F)(F)F)nnc2c1C` [Compound 323, (S)-4-(6-(7,8-dimethyl-3-(trifluoromethyl)-[1,2,4]triazolo[4,3-b]pyridazin-6-yl)-5,6,7,8-tetrahydro-1,6-naphthyridin-3-yl)-2-phenylmorpholine], the Emax at 30 µM was determined as 46% and the EC50 is 8910 nM.

As for `Cc1cc2nnc(C(F)(F)F)n2nc1N1CCc2ncc(N3CCOc4ncccc43)cc2C1` [Compound 324, 1-(6-(7-methyl-3-(trifluoromethyl)-[1,2,4]triazolo[4,3-b]pyridazin-6-yl)-5,6,7,8-tetrahydro-1,6-naphthyridin-3-yl)-2,3-dihydro-1H-pyrido[2,3-b][1,4]oxazine], the Emax at 30 µM was 111% and the EC50 amounted to 153 nM.

In the case of `Cc1cc2nnc(C(F)(F)F)n2nc1N1CCc2ncc(N3CCCn4nccc43)cc2C1` [Compound 325, 3-(6,7-dihydropyrazolo[1,5-a]pyrimidin-4(5H)-yl)-6-(7-methyl-3-(trifluoromethyl)-[1,2,4]triazolo[4,3-b]pyridazin-6-yl)-5,6,7,8-tetrahydro-1,6-naphthyridine], the Emax at 30 µM was found to be 116% and the EC50 amounted to 50 nM.

`Cc1cc2nnc(C(F)(F)F)n2nc1N1CCc2ncc(N3CCOC(c4ccccn4)C3)cc2C1` (stereo not drawn) [Compound 326, 4-(6-(7-methyl-3-(trifluoromethyl)-[1,2,4]triazolo[4,3-b]pyridazin-6-yl)-5,6,7,8-tetrahydro-1,6-naphthyridin-3-yl)-2-(pyridin-2-yl)morpholine]: the Emax at 30 µM was determined as 62% and the EC50 amounted to 2080 nM.

Regarding `Cc1c(N2CCc3ncc(N4CCOC(c5ccccn5)C4)cc3C2)nn2c(C(F)(F)F)nnc2c1C` (stereo not drawn) [Compound 327, 4-(6-(7,8-dimethyl-3-(trifluoromethyl)-[1,2,4]triazolo[4,3-b]pyridazin-6-yl)-5,6,7,8-tetrahydro-1,6-naphthyridin-3-yl)-2-(pyridin-2-yl)morpholine], the maximum response (Emax) at 30 µM is 68% and the EC50 was found to be 1310 nM.

For the molecule `Cc1c(N2CCc3ncc(N4CCOC(c5cccnc5)C4)cc3C2)nn2c(C(F)(F)F)nnc2c1C` (stereo not drawn) [Compound 328, 4-(6-(7,8-dimethyl-3-(trifluoromethyl)-[1,2,4]triazolo[4,3-b]pyridazin-6-yl)-5,6,7,8-tetrahydro-1,6-naphthyridin-3-yl)-2-(pyridin-3-yl)morpholine], the Emax at 30 µM is 76% and the EC50 is 623 nM.

For the molecule `Cc1cc2nnc(C(F)(F)F)n2nc1N1CCc2ncc(N3CCOC(c4cccnc4)C3)cc2C1` (stereo not drawn) [Compound 329, 4-(6-(7-methyl-3-(trifluoromethyl)-[1,2,4]triazolo[4,3-b]pyridazin-6-yl)-5,6,7,8-tetrahydro-1,6-naphthyridin-3-yl)-2-(pyridin-3-yl)morpholine], the Emax at 30 µM turned out to be 80% and the concentration giving a half-maximal response (EC50) was determined as 1490 nM.

With `Cc1cc2nncn2nc1N1Cc2cc(N3CCOCC3)cnc2C(C)C1` (stereo not drawn) [Compound 330, 4-(8-methyl-6-(7-methyl-[1,2,4]triazolo[4,3-b]pyridazin-6-yl)-5,6,7,8-tetrahydro-1,6-naphthyridin-3-yl)morpholine], the Emax at 30 µM is 83% and the EC50 was determined as 2150 nM.

On to `Cc1c(N2Cc3cc(N4CCOCC4)cnc3C(C)C2)nn2cnnc2c1C` (stereo not drawn) [Compound 331, 4-(6-(7,8-dimethyl-[1,2,4]triazolo[4,3-b]pyridazin-6-yl)-8-methyl-5,6,7,8-tetrahydro-1,6-naphthyridin-3-yl)morpholine], for which the Emax at 30 µM is 94% and the EC50 was determined as 700 nM.

Consider `Cc1cc2nncn2nc1N1CCc2ncc(N3CCN(C)C(=O)C3)cc2C1` [Compound 332, 1-methyl-4-(6-(7-methyl-[1,2,4]triazolo[4,3-b]pyridazin-6-yl)-5,6,7,8-tetrahydro-1,6-naphthyridin-3-yl)piperazin-2-one], for which the Emax at 30 µM was 71% and the 50% effective concentration (EC50) stood at 2590 nM.

In the case of `Cc1c(N2CCc3ncc(N4CCN(C)C(=O)C4)cc3C2)nn2cnnc2c1C` [Compound 333, 4-(6-(7,8-dimethyl-[1,2,4]triazolo[4,3-b]pyridazin-6-yl)-5,6,7,8-tetrahydro-1,6-naphthyridin-3-yl)-1-methylpiperazin-2-one], the Emax at 30 µM was 52% and the EC50 was 1340 nM.

Take `Cc1cc2nncn2nc1N1CCc2ncc(CC(F)(F)F)cc2C1` [Compound 334, 6-(7-methyl-[1,2,4]triazolo[4,3-b]pyridazin-6-yl)-3-(2,2,2-trifluoroethyl)-5,6,7,8-tetrahydro-1,6-naphthyridine]: the maximal effect (Emax) at 30 µM amounted to 74% and the concentration for a half-maximal effect (EC50) amounted to 234 nM.

Regarding `Cc1cc2nncn2nc1N1CCc2ncc(C(C)(O)C(F)(F)F)cc2C1` (stereo not drawn) [Compound 335, 1,1,1-trifluoro-2-(6-(7-methyl-[1,2,4]triazolo[4,3-b]pyridazin-6-yl)-5,6,7,8-tetrahydro-1,6-naphthyridin-3-yl)propan-2-ol], the Emax at 30 µM was determined as 77% and the EC50 came to 1700 nM.

As to `CCOC(=O)c1c(C)nc2cc(C)c(N3CCc4ncc(N5CCCn6nccc65)cc4C3)nn12` [Compound 336, ethyl 6-(3-(6,7-dihydropyrazolo[1,5-a]pyrimidin-4(5H)-yl)-7,8-dihydro-1,6-naphthyridin-6(5H)-yl)-2,7-dimethylimidazo[1,2-b]pyridazine-3-carboxylate], the Emax at 30 µM turned out to be 72% and the EC50 amounted to 359 nM.

`CCOC(=O)c1c(C)nc2cc(C)c(N3CCc4ncc(C(F)(F)F)cc4C3)nn12` [Compound 337, ethyl 2,7-dimethyl-6-(3-(trifluoromethyl)-7,8-dihydro-1,6-naphthyridin-6(5H)-yl)imidazo[1,2-b]pyridazine-3-carboxylate]: the maximum response (Emax) at 30 µM was found to be 61% and the EC50 stood at 1610 nM.

For the molecule `FC(F)(F)c1cnc2c(c1)CN(c1nn3c(C(F)(F)F)nnc3c3ccccc13)CC2` [Compound 338, 3-(trifluoromethyl)-6-(3-(trifluoromethyl)-7,8-dihydro-1,6-naphthyridin-6(5H)-yl)-[1,2,4]triazolo[3,4-a]phthalazine], the Emax at 30 µM is 84% and the EC50 was 5400 nM.

With `CCOC(=O)c1c(C)nc2c(C)c(C)c(N3CCc4ncc(C(F)(F)F)cc4C3)nn12` [Compound 339, Ethyl 2,7,8-trimethyl-6-(3-(trifluoromethyl)-7,8-dihydro-1,6-naphthyridin-6(5H)-yl)imidazo[1,2-b]pyridazine-3-carboxylate], the Emax at 30 µM was determined as 67% and the EC50 amounted to 1900 nM.

For the molecule `Cc1cc2cncn2nc1N1CCc2ncc(C(F)(F)F)cc2C1` [Compound 340, 6-(3-methylimidazo[1,5-b]pyridazin-2-yl)-3-(trifluoromethyl)-5,6,7,8-tetrahydro-1,6-naphthyridine], the Emax at 30 µM came out at 84% and the EC50 amounted to 431 nM.

As for `Cc1cc2cnc(C)n2nc1N1CCc2ncc(C(F)(F)F)cc2C1` [Compound 341, 6-(3,7-dimethylimidazo[1,5-b]pyridazin-2-yl)-3-(trifluoromethyl)-5,6,7,8-tetrahydro-1,6-naphthyridine], the Emax at 30 µM was 63% and the EC50 was found to be 521 nM.
